The text below walks through data of patent US20260317356A1, “SMALL MOLECULE MODULATORS OF OGG1” (AZKARRA THERAPEUTICS, INC., priority 2023, published 2026).

pIC50: −log10 of the molar value.

For the assay, the target named is hOGG1 (Homo sapiens, UniProt O15527). The assay can be described thus: Biochemical fluorescence assay to measure enzymatic activity of hOGG1 (OGG1/APEX IC50). Also on record: Protein His-hOGG1 (12-323) was prepared; His (N); host or cells: E. coli. The settings on record: 1 nM OGG1+2 nM APEX+6 nM dsDNA (8-oxo-dG substrate); pH 7.5; RT 40 min; read-out: OGG1/APEX IC50. An outline of the steps: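 His-hOGG1 (12-323, E. coli) at 1 nM with 2 nM hAPE1/APEX1, preincubated 20 min RT with compound. Then 6 nM 8-oxo-dG dsDNA substrate added, 40 min at RT in Tris pH 7.5, 100 mM KCl. TAMRA fluorescence (Ex520/Em600) converted to % inhibition vs controls; IC50 from 3-parameter fit of 10-point curve.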
hOGG1, sequence (O15527 12-323): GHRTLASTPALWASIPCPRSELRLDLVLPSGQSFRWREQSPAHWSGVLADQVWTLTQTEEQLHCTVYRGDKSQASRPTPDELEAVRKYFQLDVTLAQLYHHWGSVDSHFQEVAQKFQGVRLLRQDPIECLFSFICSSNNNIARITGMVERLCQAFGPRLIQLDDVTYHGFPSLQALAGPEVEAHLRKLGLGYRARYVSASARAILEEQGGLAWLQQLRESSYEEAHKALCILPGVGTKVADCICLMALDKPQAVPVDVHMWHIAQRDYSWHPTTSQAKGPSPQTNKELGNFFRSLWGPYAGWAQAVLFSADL
Take `COc1cc(NC(=O)[C@H]2CC[C@@H](N3Cc4c(C)cc(CO)cc4NC3=O)CC2)ccc1C` [Example 81, (1s,4s)-4-(7-(hydroxymethyl)-5-methyl-2-oxo-1,2-dihydroquinazolin-3(4H)-yl)-N-(3-methoxy-4-methylphenyl)cyclohexanecarboxamide]: the pIC50 was above 7.00.

On to `COc1cc(NC(=O)[C@H]2CC[C@@H](N3Cc4c(C)cc(OCCN(C)C)cc4NC3=O)CC2)ccc1C` [Example 82, (1s,4s)-4-(7-(2-(dimethylamino)ethoxy)-5-methyl-2-oxo-1,2-dihydroquinazolin-3(4H)-yl)-N-(3-methoxy-4-methylphenyl)cyclohexanecarboxamide], for which the pIC50 was above 7.00. The figure for `C=Cc1cc(C)c2c(c1)NC(=O)N([C@H]1CC[C@@H](C(=O)Nc3ccc(C)c(OC)c3)CC1)C2` [Example 83, (1s,4s)-N-(3-methoxy-4-methylphenyl)-4-(5-methyl-2-oxo-7-vinyl-1,2-dihydroquinazolin-3(4H)-yl)cyclohexanecarboxamide] is 6.00 to 7.00; for `COc1cc(NC(=O)[C@H]2CC[C@@H](N3Cc4c(C)cc(C(=O)NCCN(C)C)cc4NC3=O)CC2)ccc1C` [Example 84, N-(2-(dimethylamino)ethyl)-3-((1s,4s)-4-(3-methoxy-4-methylphenylcarbamoyl)cyclohexyl)-5-methyl-2-oxo-1,2,3,4-tetrahydroquinazoline-7-carboxamide] it is above 7.00. Turning to `COc1cc(NC(=O)[C@H]2CC[C@H](N3Cc4c(C)cc(NCCN(C)C)cc4NC3=O)CC2)ccc1C` [Example 85, (1r,4r)-4-(7-(2-(dimethylamino)ethylamino)-5-methyl-2-oxo-1,2-dihydroquinazolin-3(4H)-yl)-N-(3-methoxy-4-methylphenyl)cyclohexanecarboxamide], the pIC50 is 6.00 to 7.00. As for `COc1ccc(NC(=O)[C@H]2CC[C@@H](N3Cc4c(C)cccc4NC3=O)CC2)cc1C#N` [Example 86, (1s,4s)-N-(3-cyano-4-methoxyphenyl)-4-(5-methyl-2-oxo-1,2-dihydroquinazolin-3(4H)-yl)cyclohexanecarboxamide], the pIC50 was above 7.00. The result for `COc1ccc(NC(=O)[C@H]2CC[C@@H](N3Cc4c(C)cccc4NC3=O)CC2)cc1C` [Example 87, (1s,4s)-N-(4-methoxy-3-methylphenyl)-4-(5-methyl-2-oxo-1,2-dihydroquinazolin-3(4H)-yl)cyclohexanecarboxamide] reads above 7.00; that for `COc1ccc(NC(=O)[C@H]2CC[C@@H](N3Cc4c(C)cccc4NC3=O)CC2)cc1Cl` [Example 88, (1s,4s)-N-(3-chloro-4-methoxyphenyl)-4-(5-methyl-2-oxo-1,2-dihydroquinazolin-3(4H)-yl)cyclohexanecarboxamide], above 7.00; that for `COc1ccc(NC(=O)[C@H]2CC[C@@H](N3Cc4c(C)cccc4NC3=O)CC2)cc1F` [Example 89, (1s,4s)-N-(3-fluoro-4-methoxyphenyl)-4-(5-methyl-2-oxo-1,2-dihydroquinazolin-3(4H)-yl)cyclohexanecarboxamide], 6.00 to 7.00.

For the compound `Cc1cccc2c1CN([C@H]1CC[C@@H](C(=O)Nc3ccc(Cl)c(F)c3)CC1)C(=O)N2` [Example 90, (1s,4s)-N-(4-chloro-3-fluorophenyl)-4-(5-methyl-2-oxo-1,2-dihydroquinazolin-3(4H)-yl)cyclohexanecarboxamide], the pIC50 is 6.00 to 7.00.

For `COc1cc(NC(=O)[C@H]2CC[C@@H](N3Cc4c(Br)cncc4NC3=O)CC2)ccc1C` [Example 91, (1s,4s)-4-(5-bromo-2-oxo-1,2-dihydropyrido[3,4-d]pyrimidin-3(4H)-yl)-N-(3-methoxy-4-methylphenyl)cyclohexanecarboxamide], the pIC50 is above 7.00. The result for `CCc1ccc(NC(=O)[C@H]2CC[C@@H](N3Cc4c(C)cccc4NC3=O)CC2)cc1C` [Example 93, (1s,4s)-N-(4-ethyl-3-methylphenyl)-4-(5-methyl-2-oxo-1,2-dihydroquinazolin-3(4H)-yl)cyclohexanecarboxamide] reads 6.00 to 7.00; that for `CCc1ccc(NC(=O)[C@H]2CC[C@@H](N3Cc4c(C)cccc4NC3=O)CC2)cc1C#N` [Example 94, (1s,4s)-N-(3-cyano-4-ethylphenyl)-4-(5-methyl-2-oxo-1,2-dihydroquinazolin-3(4H)-yl)cyclohexanecarboxamide], 6.00 to 7.00; that for `CCc1ccc(NC(=O)[C@H]2CC[C@@H](N3Cc4c(C)cccc4NC3=O)CC2)cc1OC` [Example 95, (1s,4s)-N-(4-ethyl-3-methoxyphenyl)-4-(5-methyl-2-oxo-1,2-dihydroquinazolin-3(4H)-yl)cyclohexanecarboxamide], 6.00 to 7.00. The figure for `COc1cc(NC(=O)[C@H]2CC[C@@H](N3Cc4c(C)cc(NCCN(C)C)cc4NC3=O)CC2)ccc1C` [Example 96, (1s,4s)-4-(7-(2-(dimethylamino)ethylamino)-5-methyl-2-oxo-1,2-dihydroquinazolin-3(4H)-yl)-N-(3-methoxy-4-methylphenyl)cyclohexanecarboxamide] is above 7.00; for `COc1ccc(NC(=O)[C@H]2CC[C@@H](N3Cc4c(C)cc(NCCN(C)C)cc4NC3=O)CC2)cc1Cl` [Example 100, (1s,4s)-N-(3-chloro-4-methoxyphenyl)-4-(7-(2-(dimethylamino)ethylamino)-5-methyl-2-oxo-1,2-dihydroquinazolin-3(4H)-yl)cyclohexanecarboxamide] it is above 7.00. Take `Cc1cccc2c1CN([C@H]1CC[C@@H](C(=O)Nc3ccc4nc[nH]c4c3)CC1)C(=O)N2` [Example 109, (1s,4s)-N-(1H-benzo[d]imidazol-6-yl)-4-(5-methyl-2-oxo-1,2-dihydroquinazolin-3(4H)-yl)cyclohexanecarboxamide]: the pIC50 is 5.00 to 6.00. The figure for `COc1cc(NC(=O)[C@H]2CC[C@H](N3Cc4c(C)cc(C5COC5)cc4NC3=O)CC2)ccc1C` [Example 110, (1r,4r)-N-(3-methoxy-4-methylphenyl)-4-(5-methyl-7-(oxetan-3-yl)-2-oxo-1,2-dihydroquinazolin-3(4H)-yl)cyclohexanecarboxamide] is 5.00 to 6.00.

In the case of `COc1cc(NC(=O)[C@H]2CC[C@H](N3Cc4c(C)cc(COC5CNC5)cc4NC3=O)CC2)ccc1C` [Example 111, (1r,4r)-4-(7-((azetidin-3-yloxy)methyl)-5-methyl-2-oxo-1,2-dihydroquinazolin-3(4H)-yl)-N-(3-methoxy-4-methylphenyl)cyclohexanecarboxamide], the pIC50 is below 5.00. The result for `Cc1cccc2c1CN([C@H]1CC[C@@H](C(=O)Nc3cc4ccccc4[nH]3)CC1)C(=O)N2` [Example 112, (1s,4s)-N-(1H-indol-2-yl)-4-(5-methyl-2-oxo-1,2-dihydroquinazolin-3(4H)-yl)cyclohexanecarboxamide] reads above 7.00. The figure for `Cc1cccc2c1CN([C@H]1CC[C@@H](C(=O)Nc3ccc4cc[nH]c4c3)CC1)C(=O)N2` [Example 113, (1s,4s)-N-(1H-indol-6-yl)-4-(5-methyl-2-oxo-1,2-dihydroquinazolin-3(4H)-yl)cyclohexanecarboxamide] is 6.00 to 7.00; for `Cc1cccc2c1CN([C@H]1CC[C@@H](C(=O)Nc3ccc4oncc4c3)CC1)C(=O)N2` [Example 114, (1s,4s)-N-(benzo[d]isoxazol-5-yl)-4-(5-methyl-2-oxo-1,2-dihydroquinazolin-3(4H)-yl)cyclohexanecarboxamide] it is 5.00 to 6.00.
